Assay results reported in patent US7388027B2, “Bicyclic compounds as modulators of androgen receptor function and method” (Bristol-Myers Squibb Company, priority 2004, dated 2008).

How the values were obtained:
AR = target: T1, AR (Rattus norvegicus, UniProt P15207)
T1 sequence (P15207 1-902): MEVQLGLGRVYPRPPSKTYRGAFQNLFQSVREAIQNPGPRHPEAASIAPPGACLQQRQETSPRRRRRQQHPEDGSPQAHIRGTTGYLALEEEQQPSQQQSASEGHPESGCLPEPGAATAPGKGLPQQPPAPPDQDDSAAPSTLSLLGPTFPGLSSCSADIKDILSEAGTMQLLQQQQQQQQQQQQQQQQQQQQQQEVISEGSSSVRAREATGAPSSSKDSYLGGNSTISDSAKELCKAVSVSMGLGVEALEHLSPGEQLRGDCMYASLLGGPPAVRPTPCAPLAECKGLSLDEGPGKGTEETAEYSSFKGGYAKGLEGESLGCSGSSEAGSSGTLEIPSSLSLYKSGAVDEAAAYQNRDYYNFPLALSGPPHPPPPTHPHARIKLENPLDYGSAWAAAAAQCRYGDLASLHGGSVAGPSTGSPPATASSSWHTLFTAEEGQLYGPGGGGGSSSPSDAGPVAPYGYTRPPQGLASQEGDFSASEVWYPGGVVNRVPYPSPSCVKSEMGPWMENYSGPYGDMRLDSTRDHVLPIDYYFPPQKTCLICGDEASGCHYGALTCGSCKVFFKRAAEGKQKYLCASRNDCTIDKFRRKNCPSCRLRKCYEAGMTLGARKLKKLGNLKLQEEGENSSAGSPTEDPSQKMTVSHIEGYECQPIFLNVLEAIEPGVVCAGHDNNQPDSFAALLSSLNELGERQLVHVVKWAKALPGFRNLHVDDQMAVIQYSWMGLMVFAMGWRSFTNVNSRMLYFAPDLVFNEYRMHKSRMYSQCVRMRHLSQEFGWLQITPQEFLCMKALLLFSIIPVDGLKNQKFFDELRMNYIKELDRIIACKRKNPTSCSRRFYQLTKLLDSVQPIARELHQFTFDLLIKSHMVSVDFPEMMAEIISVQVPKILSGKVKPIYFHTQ
From the text: The activity of compounds of the present invention as AR agonists was investigated in an immature male rat model, a recognized test of anabolic effects in muscle and sustaining effects in sex organs for a given compound, as described in L. G. Hershberger et al., Proc. Soc. […] Biol. Med., 83, 175 (1953); B. L. Beyler et al, “Methods for evaluating anabolic and catabolic agents in laboratory animals”, J. Amer. Med. Women's Ass., 23, 708 (1968); H. Fukuda et al., “Investigations of the levator ani muscle as an anabolic steroid assay”, Nago Dai. Yak. Ken. Nem. 14, 84 (1966) the disclosures of which are herein incorporated by reference.
The basis of this assay lies in the well-defined action of androgenic agents on the maintenance and growth of muscle tissues and sexual accessory organs in animals and man. […] J. Anat. […] I. Quantitative data” Boll.-Soc. Ital. Biol. Sper. […] II. Electron-microscopic observations” Boll.-Soc. Ital. Biol. Sper. 42, 1600 (1966); A. Boris et al., Steroids 15, 61 (1970). As described above, the effects of androgens on maintenance of male sexual accessory organs, such as the prostate and seminal vesicles, is well described. Castration results in rapid involution and atrophy of the prostate and seminal vesicles. This effect can be reversed by exogenous addition of androgens. […]

[1] = tested on: endogenous glucocorticoid receptor (A549 cells, AP-1 luciferase reporter); assay: In vitro assay to measure GR-induced AP-1 transrepression (luciferase reporter in A549 cells); type: cell-based; settings: concentration of ≦10 μM; 10 ng/mL PMA; 7 h; typical value
Experimental: The AP-1 assay is a cell-based luciferase reporter assay. A549 cells, which contain endogenous glucocorticoid receptor, were stably transfected with an AP-1 DNA binding site attached to the luciferase gene. Cells are then grown in RPMI+10% fetal calf serum (charcoal-treated)+Penicillin/Streptomycin with 0.5 mg/mL geneticin. Cells are plated the day before the assay at approximately 40000 cells/well. On assay day, the media is removed by aspiration and 20 μL assay buffer (RPMI without phenol red+10% FCS (charcoal-treated)+Pen/Strep) is added to each well. At this point either 20 μL assay buffer (control experiments), the compounds of the present invention (“test compounds”) (dissolved in DMSO and added at varying concentrations) or dexamethasome (100 nM in DMSO, positive control) are added to each well. The plates are then pre-incubated for 15 min at 37° C., followed by stimulation of the cells with 10 ng/mL PMA. The plates are then incubated for 7 h at 37° C. after which 40 μL luciferase substrate reagent is added to each well. Activity is measured by analysis in a luminometer as compared to control experiments treated with buffer or dexamethasome.

[2] = tested on: wild type AR (MDA 453 cells); settings: read-out: Kd for [3H]-DHT, Scatchard analysis, 4 h at 37° C.
Experimental: For the whole-cell binding assay, human LNCaP cells (T877A mutant AR) or MDA 453 (wild type AR) in 96-well microtiter plates containing RPMI 1640 or DMEM supplemented with 10% charcoal stripped CA-FBS (Cocaleco Biologicals) respectively, were incubated at 37° C. to remove any endogenous ligand that might be complexed with the receptor in the cells.
For the saturation analysis, the difference between the total binding and the non-specific binding, was defined as specific binding. […] See e.g. D. Rodbard, Mathematics and statistics of ligand assays: an illustrated guide: In: J. Langon and J. J. Clapp, eds., Ligand Assay, Masson Publishing U.S.A., Inc., New York, pp. 45-99, (1981), the disclosure of which is herein incorporated by reference.
[formula] After correcting for non-specific binding, IC50 values were determined. […] C2C12 Mouse Myoblast Transactivation Assay

CCC(=O)O[C@H]1CC[C@H]2[C@@H]3CCC4=CC(=O)CC[C@]4(C)[C@H]3CC[C@]12C [TP, testosterone propionate]
EC50 (increase in organ weight) (AR; immature castrated rats): ~0.03 mg
potency relative to free T (AR; organ weight increase, rats): 10-30 fold

C[C@@H]1C[C@H]2[C@@H]3CCC4=CC(=O)C=C[C@]4(C)[C@@]3(F)[C@@H](O)C[C@]2(C)[C@@]1(O)C(=O)CO [dexamethasone]
suppression of activity (% inhibition of the reporter system vs buffer control with PMA alone) [1]: 65%

tritiated dihydrotestosterone [[^3H]-DHT]
Kd [2]: 0.7 nM
